{"source": "ChEMBL document CHEMBL3526078", "about": "“Pharmacokinetics and hepatic uptake of eltrombopag, a novel platelet-increasing agent” (Drug Metab Dispos, 2011)", "key": {"[1]": {"molecular_target": "T1, Solute carrier organic anion transporter family member 2B1 (Homo sapiens, UniProt O94956)", "T1 sequence (O94956 whole entry)": "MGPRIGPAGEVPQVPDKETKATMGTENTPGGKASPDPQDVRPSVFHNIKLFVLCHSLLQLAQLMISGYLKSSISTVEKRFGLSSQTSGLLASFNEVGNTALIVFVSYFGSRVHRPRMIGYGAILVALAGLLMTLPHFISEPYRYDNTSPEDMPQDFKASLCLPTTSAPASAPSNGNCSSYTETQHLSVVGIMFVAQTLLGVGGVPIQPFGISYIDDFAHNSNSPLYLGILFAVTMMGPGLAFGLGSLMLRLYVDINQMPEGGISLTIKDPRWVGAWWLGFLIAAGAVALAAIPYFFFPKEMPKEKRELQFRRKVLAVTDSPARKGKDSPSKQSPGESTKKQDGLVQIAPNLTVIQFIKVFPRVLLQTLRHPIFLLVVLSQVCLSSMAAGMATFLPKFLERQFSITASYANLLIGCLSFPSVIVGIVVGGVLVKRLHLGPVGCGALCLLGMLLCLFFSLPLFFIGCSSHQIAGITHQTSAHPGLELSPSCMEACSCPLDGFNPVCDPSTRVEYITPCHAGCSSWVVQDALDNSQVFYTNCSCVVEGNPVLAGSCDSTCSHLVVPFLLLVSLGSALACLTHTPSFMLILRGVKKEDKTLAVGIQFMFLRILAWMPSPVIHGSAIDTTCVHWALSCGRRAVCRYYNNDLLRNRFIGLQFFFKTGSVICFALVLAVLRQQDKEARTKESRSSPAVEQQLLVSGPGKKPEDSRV", "assay": "Inhibition of OATP2B1-mediated [3H]estrone-3-sulfate uptake in human OATP2B1 expressing HEK293/PDZK1 cells by scintillation counting", "assay_type": "ADME, cell-based"}, "[2]": {"molecular_target": "T2, Solute carrier family 22 member 1 (Homo sapiens, UniProt O15245)", "T2 sequence (O15245 whole entry)": "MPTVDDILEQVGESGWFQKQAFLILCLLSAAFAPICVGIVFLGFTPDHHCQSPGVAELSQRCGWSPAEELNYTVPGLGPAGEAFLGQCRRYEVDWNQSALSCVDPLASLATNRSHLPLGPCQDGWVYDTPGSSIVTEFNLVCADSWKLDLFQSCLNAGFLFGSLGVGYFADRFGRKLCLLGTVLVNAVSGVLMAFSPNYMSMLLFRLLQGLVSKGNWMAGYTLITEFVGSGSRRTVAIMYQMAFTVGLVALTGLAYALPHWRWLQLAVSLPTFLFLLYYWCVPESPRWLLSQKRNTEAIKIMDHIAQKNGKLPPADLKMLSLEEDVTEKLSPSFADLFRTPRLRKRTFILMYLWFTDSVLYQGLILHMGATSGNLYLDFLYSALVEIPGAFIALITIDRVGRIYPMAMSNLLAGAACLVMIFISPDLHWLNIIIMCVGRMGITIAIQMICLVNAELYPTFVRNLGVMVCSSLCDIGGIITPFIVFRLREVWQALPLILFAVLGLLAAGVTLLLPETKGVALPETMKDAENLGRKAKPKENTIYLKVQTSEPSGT", "assay": "Inhibition of OCT1-mediated [14C]tetraethylammonium uptake in human OCT1 expressing HEK293/PDZK1 cells by scintillation counting", "assay_type": "ADME, cell-based"}, "Hepatocyte [3]": {"system": "Hepatocyte", "assay": "Drug uptake in mouse hepatocytes in presence of TPeA", "assay_type": "ADME, cell-based"}, "Hepatocyte [4]": {"system": "Hepatocyte", "assay": "Drug uptake in mouse hepatocytes at pH 6.5", "assay_type": "ADME, cell-based"}, "[5]": {"assay": "Drug metabolism in human urine assessed as oxidized metabolites at 50 mg, po single dose", "assay_type": "ADME, organism-based", "conditions": "in vivo; call rule not given here"}, "[6]": {"assay": "Solubility of the compound", "assay_type": "physicochemical"}, "[7]": {"assay": "Volume of distribution at steady state in Sprague-Dawley rat at 1 mg/kg, iv", "assay_type": "ADME, organism-based", "parameters": "dose 1 mg/kg, route intravenous", "conditions": "in vivo, read-out: Vdss"}, "Hepatocyte [8]": {"system": "Hepatocyte", "assay": "Drug uptake in mouse hepatocytes in absence of Cl-", "assay_type": "ADME, cell-based"}, "[9]": {"assay": "Total clearance in bile duct cannulated Sprague-Dawley rat at 1 mg/kg, iv", "assay_type": "ADME, organism-based", "parameters": "dose 1 mg/kg, route intravenous", "conditions": "in vivo"}, "[10]": {"assay": "Total clearance in bile-duct cannulated Sprague-Dawley rat at 1 mg/kg, iv in presence of 20 mg/kg rifampicin (reference value: 34.3 +/- 3.9 ml/h/kg)", "assay_type": "ADME, organism-based", "conditions": "in vivo"}, "Liver [11]": {"system": "Liver", "assay": "Drug uptake in mouse liver at 1 mg/kg, iv in presence of 30 umol/kg TPeA", "assay_type": "ADME, organism-based", "parameters": "dose 1 mg/kg, route intravenous", "conditions": "in vivo"}, "[12]": {"assay": "Total clearance in Sprague-Dawley rat at 1 mg/kg, iv", "assay_type": "ADME, organism-based", "parameters": "dose 1 mg/kg, route intravenous", "conditions": "in vivo"}, "[13]": {"assay": "Drug metabolism in human feces assessed as oxidized metabolites at 50 mg, po single dose", "assay_type": "ADME, organism-based", "conditions": "in vivo"}, "Hepatocyte [14]": {"system": "Hepatocyte", "assay": "Drug uptake in mouse hepatocytes in presence of carbonyl cyanide-para-trifluoromethoxyphenylhydrazone ATP depletor", "assay_type": "ADME, cell-based"}, "Hepatocyte [15]": {"system": "Hepatocyte", "assay": "Drug uptake in mouse hepatocytes in presence of verapamil", "assay_type": "ADME, cell-based"}, "Hepatocyte [16]": {"system": "Hepatocyte", "assay": "Drug uptake in mouse hepatocytes in absence of Na+", "assay_type": "ADME, cell-based"}, "[17]": {"assay": "Drug excretion in Sprague-Dawley rat urine assessed as unchanged compound level at 1 mg/kg, iv for 72 hrs", "assay_type": "ADME, organism-based", "parameters": "dose 1 mg/kg, route intravenous", "conditions": "read-out: Drug excretion"}, "[18]": {"assay": "Distribution volume to the central compartment in Sprague-Dawley rat urine at 1 mg/kg, iv", "assay_type": "ADME, organism-based", "parameters": "dose 1 mg/kg, route intravenous", "conditions": "read-out: Vc"}, "Hepatocyte [19]": {"system": "Hepatocyte", "assay": "Drug uptake in mouse hepatocytes in presence of taurocholate OATP inhibitor", "assay_type": "ADME, cell-based"}, "Liver [20]": {"system": "Liver", "assay": "Tissue uptake clearance in bile duct cannulated Sprague-Dawley rat liver at 1 mg/kg, iv by integration plot analysis", "assay_type": "ADME, organism-based", "parameters": "dose 1 mg/kg, route intravenous", "conditions": "in vivo"}, "Hepatocyte [21]": {"system": "Hepatocyte", "assay": "Drug uptake in mouse hepatocytes in presence of quinidine", "assay_type": "ADME, cell-based"}}, "note": "pKi: −log10 of the molar value.", "data": [{"smiles": "CC1=NN(c2ccc(C)c(C)c2)C(=O)/C1=N\\Nc1cccc(-c2cccc(C(=O)O)c2)c1O", "note": "[ELTROMBOPAG]", "values": [{"measurement": "pKi", "setting": "[1]", "result": 5.07}, {"measurement": "inhibition (INH)", "setting": "[1]; human, hek293/pdzk1", "result": "Active"}, {"measurement": "pKi", "setting": "[2]", "result": 3.99}, {"measurement": "inhibition (INH)", "setting": "[2]; human, hek293/pdzk1", "result": "Active"}, {"measurement": "Drug uptake", "setting": "Hepatocyte [3]", "result": "Not Active"}, {"measurement": "Drug uptake", "setting": "Hepatocyte [4]", "result": "Active"}, {"measurement": "Drug excretion", "setting": "[5]", "result": 31, "unit": "%"}, {"measurement": "solubility", "setting": "[6]", "result": 200, "unit": "µM"}, {"measurement": "Vd", "setting": "[7]", "result": 0.287, "unit": "L/kg"}, {"measurement": "Drug uptake", "setting": "Hepatocyte [8]", "result": "Active"}, {"measurement": "clearance", "setting": "[9]", "result": 0.572, "unit": "mL/min/kg"}, {"measurement": "clearance", "setting": "[10]", "result": 0.335, "unit": "mL/min/kg"}, {"measurement": "Drug uptake", "setting": "Liver [11]", "result": "Not Active"}, {"measurement": "clearance", "setting": "[12]", "result": 0.55, "unit": "mL/min/kg"}, {"measurement": "Drug excretion", "setting": "[13]", "result": 59, "unit": "%"}, {"measurement": "Drug uptake", "setting": "Hepatocyte [14]", "result": "Not Active"}, {"measurement": "Drug uptake", "setting": "Hepatocyte [15]", "result": "Not Active"}, {"measurement": "Drug uptake", "setting": "Hepatocyte [16]", "result": "Active"}, {"measurement": "dose excreted at 72 h", "setting": "[17]", "result": "< 0.02", "unit": "%"}, {"measurement": "Vd", "setting": "[18]", "result": 0.0411, "unit": "L/kg"}, {"measurement": "Drug uptake", "setting": "Hepatocyte [19]", "result": "Not Active"}, {"measurement": "CLup", "setting": "Liver [20]", "result": 0.747, "unit": "mL/min/kg"}, {"measurement": "Drug uptake", "setting": "Hepatocyte [21]", "result": "Not Active"}]}]}
